Structures are written as SMILES.

Experimental findings from patent US20240343713A1, “TELOMERASE INHIBITOR COMPOUNDS” (Geron Corporation, priority 2023, published 2024) are described below.

For data set [1] the following is noted: for deaths after first dose reduction: 25 mg/Kg (Compound 1, Compound 2) or 10 mg/Kg (Compound 3) PO on Day-10 and Day-12, deaths Day 11-13; for animals lost due to overdose early in the study: initial dosing 50 mg/Kg then 25 or 10 mg/Kg PO, 7 animals per group. The protocol: 7.1 Body Weight. The body weight data of NOD-SCID mice used for this study involving different treatment groups (Vehicle Control, 10 mg/Kg of the three treatment groups and 50 mg/Kg of the reference standard) was monitored every alternate day.

Data set [2] deals with LUC-MOLM13 cell line. As to conditions: for leukemia cell burden / tumor load by bioluminescence imaging (BLI), overall: male NOD-SCID mice, LUC-MOLM13 i.v., PO alternate days, test compounds finally 10 mg/Kg, BIBR-1532 50 mg/Kg, up to Day 28, vs vehicle control.
Protocol: Screening of anticancer activity of compounds in an efficacy model using Luc-MOLM13 cell line
The efficacy study was conducted to assess the tumor regression of Compound 1, Compound 2, and Compound 3 shown below in male NOD-SCID mice using LUC-MOLM13 cell line. Individual animals were assigned identification markings on the ear.
Each mouse was intravenously injected with 1 million LUC-MOLM13 tumor cells in a total volume of 0.1 mL in DPBS and this would be considered as Day 0. Luciferin (150 mg/Kg body weight) was planned to be injected (JP) 5 mins before imaging and sequential 1-2 images of mice were planned every 1 minute. The animals were planned to be dosed with test compounds from Day 10 onwards by oral route at doses of 50 mg/Kg every alternate day.
The efficacy study was conducted to assess the inhibitory effect of Compound 1, Compound 3 and Compound 2 on leukemia cell expansion in male NOD-SCID mice using LUC-MOLM13 cell line.
1 million of LUC-MOLM13 cells/100 μL were suspended in DPBS and were inoculated per mouse via intravenous route in the lateral tail vein in NOD SCID male mice (Fed animals) of 6 to 8 weeks old after 7 days of acclimatization. This was considered as Day-0 of the study.
Luciferin (150 mg/Kg body weight) was injected (IP) 5 mins before imaging and sequential 1-2 images of mice were taken every 1 minute.
Bioluminescence imaging for tumor evaluation was done on Days 0, 5, 10, 15, 18, 21 and 28 respectively along with regular body weight monitoring. The following observations were monitored at regular intervals: body weight (% body weight loss), frequencies of leukemic cells (LUC-MOLM13) in hematopoietic organs and non-lymphoid tissues using imaging on an IVIS spectrum imager for tumor burden evaluation.
Other observations included any clinical signs/observations upon dosing. […] A range of tissues were collected including brain, axillary lymph node, eyes, branchial lymph node, lungs, heart, stomach, liver, kidney, spleen, cervical lymph node, mesenteric lymph node, inguinal lymph node, GI tract and male reproductive organ. Growth kinetics of Luc-MOLM13 cells was monitored based on BLI along with survival curve.
Initial plan was to dose from Day 10 onwards by oral route at doses of 50 mg/Kg every alternate day; however, we initiated the dosing from Day-8 onwards based on few reports [7, 8]. […] BIBR-1532 dosing was maintained at 50 mg/Kg every alternate day. […] Dosing was stopped for the next 4 days for all test compounds and BIBR-1532 considering the animal health condition. […]
The data for bioluminescence imaging levels (BLI (Avg Radiance) was captured from the instrument across the individual groups for the ROI (region of interest (ROI) and the average radiance was calculated to understand the levels as compared to vehicle control (Group 3).

As for `C=C1CC(c2ccc(Cl)cc2-c2cn[nH]c2)OC1=O` (stereo not shown) [Compound 1], in data set [1], the “deaths after first dose reduction” value is “one animal each on Day 12 and Day-13”; the “animals lost due to overdose early in the study” value is recorded as “two”.
With `C/C(=C\C(=O)Nc1ccccc1C(=O)O)c1ccc2ccccc2c1` [BIBR-1532, reference compound], the overall animal health result in data set [1] (LUC-MOLM13 tumor-bearing NOD-SCID mice, test compounds 10 mg/Kg, BIBR-1532 50 mg/Kg PO) is listed as “deteriorated”. In addition, the “bioluminescence (average radiance) on Day 21” value in data set [2] (Day 21, test compounds 10 mg/Kg, BIBR-1532 50 mg/Kg PO) is reported as “signal was enhanced”. Also, the “survival curve / deaths” value in data set [2] (after dose reduction, test compounds 10 mg/Kg, BIBR-1532 50 mg/Kg PO alternate days, until Day 34) is “one death on Day 31 and another on Day 34”. Moreover, the “leukemia cell burden / tumor load by bioluminescence imaging (BLI), overall” value in data set [2] is on record as “repressed as the days progressed”.
Take `C=C1C(=O)OC(c2ccc(Cl)cc2-c2cnn(C)c2)C1O` (stereo not shown) [Compound 3]: in data set [1], the “deaths after first dose reduction” value is on record as 1 and the “animals lost due to overdose early in the study” value was “two”. Also, the “loss of animals after the first dose” value in data set [1] (mouse, in vivo) is “one”. Further, the “leukemia cell burden / tumor load by bioluminescence imaging (BLI), overall” value in data set [2] was “comparable impact on leukemia cell reduction to that of BIBR-1532, albeit at a lower dosage”.
